In one data set the target is T1, phospho-p68 (Homo sapiens, UniProt P17844).
T1 construct: made in house
Nature of the data set: β-catenin dependent ATPase assay. Format: biochemical. As to the method:
ATPase activity was determined by measuring the released inorganic phosphate during ATP hydrolysis using a direct colorimetric assay (Shin et al., Cancer Res., 67:7572-7578 (2007); Yang et. al., Cell, 127:139-155 (2006)). A typical ATPase assay was carried out in 50 μl reaction volumes, containing 20 mM Tris-HCl pH 7.5, 200 mM NaCl, 1 mM MgCl2, 5 mM DTT, ˜1-2 of appropriate substrate, 4 mM ATP, and 10 μl of helicase. The ATPase reactions were incubated at 37° C. for 30 minutes. After incubation, 1 ml of malachitegreen-molybdenum reagent was added to the reaction mixture, and reactions were further incubated at room temperature for exactly 5 minutes. The absorption (A) at 630 nm was then measured. The concentrations of inorganic phosphate were determined by matching the A630nm in a standard curve of A630nm vs. known phosphate concentrations. The proteins, p68 or phospho-p68, used for this assay were prepared in-house similar to the procedure reported previously (Yang et al., Protein Expr. Purif., 35:327-333 (2004)). The percentage of inhibition by defining the ATPase activity of phospho-p68 without RX-5902 as zero percent inhibition was calculated and IC50 of RX-5902 was calculated by non-linear regression analysis using Kaledia Graph software program (Synergy Software, Reading, Pa.).
The experiment was repeated at lower concentrations of RX-5902 to calculate IC50.

A further data set deals with T2, p68 RNA helicase (Homo sapiens, UniProt P17844).
T2 construct: made in house
T2 sequence (P17844 whole entry): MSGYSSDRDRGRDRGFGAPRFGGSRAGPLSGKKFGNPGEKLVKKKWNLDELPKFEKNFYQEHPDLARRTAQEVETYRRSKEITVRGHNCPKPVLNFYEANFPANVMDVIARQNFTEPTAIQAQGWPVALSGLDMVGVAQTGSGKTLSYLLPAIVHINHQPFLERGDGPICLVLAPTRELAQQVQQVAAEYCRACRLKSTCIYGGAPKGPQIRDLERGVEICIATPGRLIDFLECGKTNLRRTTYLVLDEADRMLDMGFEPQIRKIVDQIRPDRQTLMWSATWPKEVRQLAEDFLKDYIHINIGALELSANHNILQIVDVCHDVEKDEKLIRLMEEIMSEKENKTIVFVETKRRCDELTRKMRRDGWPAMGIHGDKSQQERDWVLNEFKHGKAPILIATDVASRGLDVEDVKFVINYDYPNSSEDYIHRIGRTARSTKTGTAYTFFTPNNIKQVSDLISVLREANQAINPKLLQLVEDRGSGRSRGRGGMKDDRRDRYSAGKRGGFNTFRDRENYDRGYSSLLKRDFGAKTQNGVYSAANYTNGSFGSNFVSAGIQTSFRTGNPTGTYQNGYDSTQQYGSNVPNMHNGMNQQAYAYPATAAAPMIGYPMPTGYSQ
Briefly: DARTS target identification (thermolysin protection, Western blot). As to conditions: MDA-MB-231 cells treated 0.1-10 μM for one hour. The class given is cell-based. As to the method: MDA-MB-231 cells were plated onto 6 well plates and treated with RX-5902 at various concentrations (0, 0.1, 1 and 10 μM) for one hour. Cells were lysed with p-MER buffer containing protease/phosphatase inhibitors on ice. Cell lysates were treated with thermolysin protease (1:1,500 ratio) for 10 min at RT and the reaction was stopped by addition of 0.5 M EDTA solution. The reaction mixtures were separated on a 10% SDS-PAGE visualized by Coomassie staining. After identifying several candidate proteins from mass spectrometry sequencing analysis, the protein which interacted with RX-5902 was confirmed by western blot analysis.
Protein mix or cell lysates were separated by SDS-PAGE and transferred to PVDF membrane. The membrane was blocked by blocking buffer (1×TBST containing 5% BSA) at room temperature for 1 hour. After a brief wash, the membrane was incubated with primary antibody in blocking buffer at 4° C. overnight. […]
Well-established target identification method DARTS assay (Lomenick et al., Proc. Natl. Acad. Sci. USA, 106:21984-21989 (2009)) was used to find target proteins that would interact with RX-5902 in cancer cells. […] To identify this protected protein, the bands along with control were sliced out, and analyzed with LC-MS/MS by ProtTech (Phoenixville, Pa.). […]

Another data set has as its system MC38 murine colon cancer. Briefly: Syngeneic MC38 murine colon cancer model. The class given is in vivo. As to the method:
Following the methods described below, the effect of RX-5902 on tumor growth in a syngeneic model using female C57BL/6 mice with MC38 murine colon cancer was examined. Tumor growth was measured in a treatment group compared to a control (vehicle treated) group (see Table 5 below for dosing schema and treatment regimen).
The present study consisted of five groups (n=10 per group) of female C57BL/6 mice bearing subcutaneous MC38 tumors (mean tumor volume range: 66-68 mm3) on Day (D1) of the study, when dosing began. Vehicle was administered orally (p.o.). RX-5902 was administered p.o. at 84.34 mg/kg (70 mg/kg active dose). Anti-PD-1 (RMP1-14) was administered at 100 μg/animal, intraperitoneally (i.p.). Group 1 mice served as controls and received PBS (vehicle) five days on, two days off for three cycles ((5/2)×3). Group 2 received RX-5902 (5/2)×3. Group 3 received anti-PD-1 twice weekly for two weeks (biwk×2). Group 4 received RX-5902 (5/2)×3 and anti-PD-1 biwk×2. The study endpoint was a tumor volume of 1500 mm^3 or 45 days, whichever came first. Tumor measurements were taken twice weekly until Day 45 with individual animals exiting the study upon reaching the tumor volume endpoint.
Partial treatment outcome was based on percent tumor growth inhibition (% TGI), defined as the percent difference between Day 28, chosen for the TGI analysis, median tumor volumes (MTVs) of treated and control mice. The results were analyzed and were deemed statistically significant at P≤0.05. A treatment that produced at least 60% TGI was considered to have potential therapeutic activity. Additionally, efficacy was determined from tumor growth delay (TGD), a measure of the increase in the median time to endpoint (TTE) in a treatment, compared to the control group. Response was additionally evaluated based on the number of study survivors, partial regression (PR) and complete regression (CR) responses, and logrank significance of differences in survival. Tolerability of the various treatments was assessed by body weight (BW) measurements and frequent observation for clinical symptoms and treatment-related (TR) side effects.

In a further data set the test system is MDA-MB-231 cells. Nature of the data set: Cytotoxicity of RX-5902 after p68 knock-down with p68-siRNA. Format: cell-based, human. As to conditions: IC50 concentration of RX-5902.

T1 sequence (P17844 whole entry): as above

For `COc1cc(OC)cc(N2CCN(C(=O)Nc3nc4cc(F)ccc4nc3OC)CC2)c1` [RX-5902, 4-(3,5-dimethoxyphenyl)-N-(7-fluoro-3-methoxyquinoxalin-2-yl)piperazine-1-carboxamide], the “β-catenin dependent ATPase activity” value on phospho-p68 (0.2 μM) is “largely diminished”. In addition, at phospho-p68 (read-out: IC50 for the inhibition of β-catenin dependent ATPase activity), the IC50 was determined as 61 nM. Besides, the “protection of ~60 kDa band (p68 RNA helicase) from protease” value at p68 RNA helicase is “protected from the protease cleavage”. The same molecule showed a TGD in the data set on MC38 murine colon cancer (45-day study, maximum possible 52%, RX-5902 84.34 mg/kg po (5/2)x3, anti-PD-1 100 μg/animal ip biwk x2) of 51%. For the same molecule, the “median TTE” value in the data set with MC38 murine colon cancer (45-day study, RX-5902 84.34 mg/kg po (5/2)x3, anti-PD-1 100 μg/animal ip biwk x2) worked out at 44.8 days. The “% TGI” value in the data set with MC38 murine colon cancer (Day 28, RX-5902 84.34 mg/kg po (5/2)x3, anti-PD-1 100 μg/animal ip biwk x2) worked out at 90%. In the data set on MC38 murine colon cancer (median tumor volume of survivors), the “MTV on D45” value was 14 mm^3. For the same molecule, in the data set on MC38 murine colon cancer (n=10 per group), the “partial regressions (PR)” value is “three” and the “survivors on D45” value was “Five”. For the same molecule, the “cytotoxic effect in p68-siRNA-transfected cells” value in the data set on MDA-MB-231 cells is listed as “protected MDA-MB-231 cells from the cytotoxic effects”.

For the origin of these results see patent US9969698B2, “Quinoxalinyl-piperazinamide methods of use” (REXAHN PHARMACEUTICALS, INC., priority 2015, dated 2018).
